Holding throughout (assay type): biochemical
Assay [1] concerns the target T1, recombinant HGFA serine protease domain (Homo sapiens, UniProt Q04756).
T1 construct: His6 tag (N); seven amino acid spacer plus TEV cleavage site (N); made in house; host or cells: High 5 insect cells (baculovirus; Sf9 for virus production)
T1 sequence (Q04756 373-655): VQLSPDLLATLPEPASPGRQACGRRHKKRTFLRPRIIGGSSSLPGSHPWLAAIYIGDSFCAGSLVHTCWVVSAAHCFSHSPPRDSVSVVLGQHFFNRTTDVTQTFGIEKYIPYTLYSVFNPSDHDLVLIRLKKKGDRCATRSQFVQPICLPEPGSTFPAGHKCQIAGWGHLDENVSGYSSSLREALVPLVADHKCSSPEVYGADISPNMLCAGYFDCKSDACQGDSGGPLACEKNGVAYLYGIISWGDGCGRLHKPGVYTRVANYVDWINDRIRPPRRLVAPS
The experiment in a line: Fluorescent kinetic enzyme assay of HGFA activity (Boc-QLR-AMC). The note with it: Table 3; average of three experiments; read-out: HGFA IC50. The text has this: The compounds prepared in Examples 1 to 8 were subjected to a series of inhibitions studies. The compounds were first tested in an HGFA enzymatic assay using the fluorogenic substrate Boc-QLR-AMC with a recombinant form of the HGFA serine protease domain.
This PCR product was cloned into the SfoI-HindIII sites of a modified pFastBac HT baculovirus expression vector (Addgene, Cambridge, MA). This vector contains a six amino His tag followed by a seven amino spacer and a seven amino acid TEV cleavage site placed immediately downstream of the honey bee melittin signal peptide. Using a modified Bac to Bac Expression System (Life Technologies, Carlsbad, CA), recombinant HGFA bacmids were obtained by transforming DH10Bac Escherichia coli cells. To obtain HGFA containing baculovirus, purified bacmids were transfected into Sf9 insect cells. After 5 days in culture at 27° C., media was harvested from transfected Sf9 cells. This media was used to prepare baculovirus infected insect cells (BIICs). These BIIICs were used to infect High 5 insect cells. Four days post infection, media was harvested, and recombinant protein was prepared as follows. Media was chilled to 4° C. and spun at 4000×g for 20 minutes (all subsequent steps were performed at 4° C. unless noted). Clarified media was passed first through a Whatman GF/B 1 um (#1821-047, GE Healthcare Life Sciences, Piscataway, NJ) and then a 0.22 μm PES membrane (#99955, TPP Techno Plastic Products AG, Trasadingen, Switzerland) and then concentrated using a Pall Centramate tangential flow system and Centramate T-series Cassette (#OS010T12, Pall Corporation, Port Washington, NY). Concentrated media was then buffer exchanged in two steps, five volumes of 50 mM Na-phosphate, 500 mM NaCl, pH 6.2, followed by five volumes of 50 mM Na-phosphate, 500 mM NaCl, pH 7.5. […] After mixing this slurry for 12 hours, nickel agarose beads were allowed to settle by gravity and then loaded into a column. Beads were washed with buffer (25 mM Na-phosphate, 500 mM NaCl, 25 mM imidazole, pH 8) and the bound protein eluted using (25 mM Na-phosphate, 500 mM NaCl, 250 mM imidazole, pH 8). Using a Amicon Ultra-4 Centrifugal filters (#UFC801008, Merck Millipore, Ltd., Tullagreen, Ireland), peak protein fractions were concentrated and run over a Superdex-200 10/300 GL column (GE Healthcare Life Sciences, Piscataway, NJ) in 10 mM Tris, 200 mM NaCl, 0.2 mM EDTA, pH 8. HGFA containing fractions were pooled, concentrated, made 50% glycerol, and stored at minus 20° C. Protein was quantitated using a modified Lowry protein assay (#500-0006, Bio-Rad Laboratories, Hercules, CA) and specific activity determined using Boc-QLR-AMC substrate.
Fluorescent kinetic enzyme assays of HGFA, matriptase, and hepsin activity: Compounds (0-20 μM final concentration in reaction) were diluted in DMSO (2% DMSO final concentration in reaction) and then mixed with either recombinant HGFA serine protease domain, matriptase (#3946-SE-010, R&D Systems, Minneapolis, Minnesota), or activated hepsin* (#4776-SE-010, R&D Systems, Minneapolis, Minnesota) in black 384 well plates (Corning #3575. Coming, NY). The final assay concentration for HGFA, matriptase, and hepsin, were 6.25 nM, 0.2 nM, and 0.3 nM, respectively in TNC buffer (25 mM Tris, 150 mM NaCl, 5 mM CaCl2, 0.01% Triton X-100, pH 8). After thirty minutes of incubation at room temperature, Boc-QLR-AMC substrate was added (HGFA assay) or Boc-QAR-AMC substrate (matriptase, and hepsin assays). Fluorescence (excitation at 380 nm and emission at 460 nm) was kinetically measured at room temperature over a 1 hour time period using a Biotek Synergy 2 plate reader (Winnoski, VT). From a plot of the mean reaction velocity versus the inhibitor concentration, a non-linear four parameter curve fit was performed using GraphPad Prism (GraphPad Software, San Diego, CA) to determine inhibitor IC50s. The IC50 values were determined from the average of three or more separate experimental determinations. […]

The target of the next assay is T2, activated hepsin (Homo sapiens, UniProt P05981).
T2 construct: purchased R&D Systems 4776-SE-010
Description: Fluorescent kinetic enzyme assay of hepsin activity (Boc-QAR-AMC).

In a further assay the target is T3, matriptase (Homo sapiens, UniProt Q9Y5Y6).
T3 construct: purchased R&D Systems 3946-SE-010
T3 sequence (Q9Y5Y6 615-855 limits assumed): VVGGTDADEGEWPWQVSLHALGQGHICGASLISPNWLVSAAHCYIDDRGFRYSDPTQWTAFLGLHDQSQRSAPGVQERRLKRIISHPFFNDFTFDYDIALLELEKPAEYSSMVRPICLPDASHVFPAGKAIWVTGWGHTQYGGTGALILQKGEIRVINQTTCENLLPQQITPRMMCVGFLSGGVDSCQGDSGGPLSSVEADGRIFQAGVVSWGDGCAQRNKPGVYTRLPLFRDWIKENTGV
Description: Fluorescent kinetic enzyme assay of matriptase activity (Boc-QAR-AMC). Conditions: Table 2; read-out: Matriptase (IC50 nM).

Where [2] appears, read: Table 3, average of three experiments, read-out: Hepsin IC50.
The mark [3] stands for this setting: Example 12, read-out: IC50 for hepsin.

SMILES strings stand for the structures. Where two headings read alike, the source gives them in different places.

T2 sequence (P05981 163-417 limits assumed): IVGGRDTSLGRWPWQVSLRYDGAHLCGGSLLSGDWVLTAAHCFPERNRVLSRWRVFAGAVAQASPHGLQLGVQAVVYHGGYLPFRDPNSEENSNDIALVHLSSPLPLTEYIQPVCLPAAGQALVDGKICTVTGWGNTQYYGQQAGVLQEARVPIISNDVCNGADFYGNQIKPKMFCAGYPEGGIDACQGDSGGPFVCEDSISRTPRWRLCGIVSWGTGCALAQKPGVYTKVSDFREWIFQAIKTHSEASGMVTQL
T2 sequence (P05981 1-162 partner limits assumed): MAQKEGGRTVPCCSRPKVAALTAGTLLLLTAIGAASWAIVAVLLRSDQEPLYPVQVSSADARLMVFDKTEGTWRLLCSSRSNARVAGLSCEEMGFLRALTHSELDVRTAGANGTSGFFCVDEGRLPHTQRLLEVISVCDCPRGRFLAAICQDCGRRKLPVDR
Description for activated hepsin: (§1) After thirty minutes of incubation at room temperature, Boc-QLR-AMC substrate was added (HGFA assay) or Boc-QAR-AMC substrate (matriptase, and hepsin assays). […] From a plot of the mean reaction velocity versus the inhibitor concentration, a non-linear four parameter curve fit was performed using GraphPad Prism (GraphPad Software, San Diego, CA) to determine inhibitor IC50s. The IC50 values were determined from the average of three or more separate experimental determinations. Apparent Ki values were calculated using the Cheng and Prusoff equation (Ki=IC50/(1+[S]/Km).
(§2) Inhibitors were pre-incubated with protease followed by the addition of the substrate. Inhibition of substrate proteolysis derived fluorescence was monitored kinetically over a period of one hour.
Description for matriptase: as §1, §2

Consider `CC(C)C[C@H](NC(=O)OC1(c2ccccc2)CCNCC1)C(=O)N[C@@H](CCCNC(=N)N)C(=O)c1nc2ccccc2s1` [Compound 8a, 4-phenylpiperidin-4-yl ((S)-1-(((S)-1-(benzo[d]thiazol-2-yl)-5-guanidino-1-oxopentan-2-yl)amino)-4-methyl-1-oxopentan-2-yl)carbamate], for which the IC50 in assay [1] was determined as 0.78 µM.
On to `CC(=O)N1CCC(OC(=O)N[C@@H](CC(C)C)C(=O)N[C@@H](CCCNC(=N)N)C(=O)c2nc3ccccc3s2)CC1` [Compound 8e, 1-acetylpiperidin-4-yl ((S)-1-(((S)-1-(benzo[d]thiazol-2-yl)-5-guanidino-1-oxopentan-2-yl)amino)-4-methyl-1-oxopentan-2-yl)carbamate], for which the IC50 at activated hepsin (setting [2]) worked out at 20 nM.
Still for that read-out and setting: the value for `CC(C)C[C@H](NC(=O)OC1CCN(S(=O)(=O)c2ccccc2)CC1)C(=O)N[C@@H](CCCNC(=N)N)C(=O)c1nc2ccccc2s1` [Compound 8f, 1-(phenylsulfonyl)piperidin-4-yl ((S)-1-(((S)-1-(benzo[d]thiazol-2-yl)-5-guanidino-1-oxopentan-2-yl)amino)-4-methyl-1-oxopentan-2-yl)carbamate] was 20 nM.
Still for that read-out and setting: the value for `CC(C)C[C@H](NC(=O)OC1CCN(S(=O)(=O)c2ccccc2F)CC1)C(=O)N[C@@H](CCCNC(=N)N)C(=O)c1nc2ccccc2s1` [Compound 8g, 1-((2-fluorophenyl)sulfonyl)piperidin-4-yl ((S)-1-(((S)-1-(benzo[d]thiazol-2-yl)-5-guanidino-1-oxopentan-2-yl)amino)-4-methyl-1-oxopentan-2-yl)carbamate] was 70 nM.
Regarding `CCS(=O)(=O)N1CCC(OC(=O)N[C@@H](CC(C)C)C(=O)N[C@@H](CCCNC(=N)N)C(=O)c2nc3ccccc3s2)CC1` [Compound 8h, 1-(ethylsulfonyl)piperidin-4-yl ((S)-1-(((S)-1-(benzo[d]thiazol-2-yl)-5-guanidino-1-oxopentan-2-yl)amino)-4-methyl-1-oxopentan-2-yl)carbamate], the IC50 on activated hepsin (setting [2]) was 10 nM.
Same read-out and setting: the figure for `CC(C)C[C@H](NC(=O)OC1CCN(S(=O)(=O)c2ccc(Cl)cc2)CC1)C(=O)N[C@@H](CCCNC(=N)N)C(=O)c1nc2ccccc2s1` [Compound 8i, 1-((4-chlorophenyl)sulfonyl)piperidin-4-yl ((S)-1-(((S)-1-(benzo[d]thiazol-2-yl)-5-guanidino-1-oxopentan-2-yl)amino)-4-methyl-1-oxopentan-2-yl)carbamate] is 60 nM; for `CC(C)C[C@H](NC(=O)OC1CCN(S(=O)(=O)c2cccc(F)c2)CC1)C(=O)N[C@@H](CCCNC(=N)N)C(=O)c1nc2ccccc2s1` [Compound 8j, 1-((3-fluorophenyl)sulfonyl)piperidin-4-yl ((S)-1-(((S)-1-(benzo[d]thiazol-2-yl)-5-guanidino-1-oxopentan-2-yl)amino)-4-methyl-1-oxopentan-2-yl)carbamate] it is 70 nM; for `CC(C)C[C@H](NC(=O)OC1CCN(S(=O)(=O)c2ccc([N+](=O)[O-])cc2[N+](=O)[O-])CC1)C(=O)N[C@@H](CCCNC(=N)N)C(=O)c1nc2ccccc2s1` [Compound 8k, 1-((2,4-dinitrophenyl)sulfonyl)piperidin-4-yl ((S)-1-(((S)-1-(benzo[d]thiazol-2-yl)-5-guanidino-1-oxopentan-2-yl)amino)-4-methyl-1-oxopentan-2-yl)carbamate] it is 110 nM.
The same measure, in the same setting: the figure for `COc1ccc(Cl)cc1S(=O)(=O)N1CCC(OC(=O)N[C@@H](CC(C)C)C(=O)N[C@@H](CCCNC(=N)N)C(=O)c2nc3ccccc3s2)CC1` [Compound 8l, 1-((5-chloro-2-methoxyphenyl)sulfonyl)piperidin-4-yl ((S)-1-(((S)-1-(benzo[d]thiazol-2-yl)-5-guanidino-1-oxopentan-2-yl)amino)-4-methyl-1-oxopentan-2-yl)carbamate] is 60 nM.
Take `Cc1cc(C)c(S(=O)(=O)N2CCC(OC(=O)N[C@@H](CC(C)C)C(=O)N[C@@H](CCCNC(=N)N)C(=O)c3nc4ccccc4s3)CC2)c(C)c1` [Compound 8m, 1-(mesitylsulfonyl)piperidin-4-yl ((S)-1-(((S)-1-(benzo[d]thiazol-2-yl)-5-guanidino-1-oxopentan-2-yl)amino)-4-methyl-1-oxopentan-2-yl)carbamate]: at activated hepsin (setting [2]), the IC50 was found to be 110 nM.
On to `CC(C)C[C@H](NC(=O)OC(c1ccccc1)C1CCNCC1)C(=O)N[C@@H](CCCNC(=N)N)C(=O)c1nc2ccccc2s1` (stereo partly drawn) [Compound 11a, phenyl(piperidin-4-yl)methyl ((S)-1-(((S)-1-(benzo[d]thiazol-2-yl)-5-guanidino-1-oxopentan-2-yl)amino)-4-methyl-1-oxopentan-2-yl)carbamate], for which the results for the IC50 (in assay [1]; at activated hepsin (setting [3])) were 14 µM and 8 nM, respectively.
On to `CC(C)C[C@H](NC(=O)OC(Cc1ccccc1)C1CCNCC1)C(=O)N[C@@H](CCCNC(=N)N)C(=O)c1nc2ccccc2s1` (stereo partly drawn) [Compound 11b, 2-phenyl-1-(piperidin-4-yl)ethyl ((S)-1-(((S)-1-(benzo[d]thiazol-2-yl)-5-guanidino-1-oxopentan-2-yl)amino)-4-methyl-1-oxopentan-2-yl)carbamate], for which the IC50 in assay [1] was 6 µM; on activated hepsin (setting [3]), 2 nM.
`CC1CN(CC2CCN(Cc3ccccc3)CC2)C(=O)N(c2cccc(C(=N)N)c2)C1` (centres unmarked) [SRI 31215, reference compound]: the IC50 in assay [1] came to 20 µM.
Turning to `CC(=O)N[C@H]1Cc2ccc(cc2)OC/C=C\CNC(=O)C[C@@H](C(=O)N[C@@H](CCCNC(=N)N)C(=O)c2nc3ccccc3s2)NC(=O)[C@H](CC(C)C)NC1=O` [VD4054, (10S,13S,16S,Z)-16-acetamido-N—((S)-1-(benzo[d]thiazol-2-yl)-5-guanidino-1-oxopentan-2-yl)-13-isobutyl-8,12,15-trioxo-2-oxa-7,11,14-triaza-1(1,4)-benzenacycloheptadecaphan-4-ene-10-carboxamide], the IC50 came out at 72.6 nM at matriptase and 0.643 nM at activated hepsin (Table 2, read-out: Hepsin (IC50 nM)).

As usually defined, the IC50 is the concentration that inhibits the measured activity by half.

The values above are taken from patent publication US12590123B2, “Compounds and methods for treating cancer, viral infections, and allergic conditions” (Washington University, priority 2019, dated 2026).
